# Measured values as given in patent publication US20230265098A1, “ALKYNE QUINAZOLINE DERIVATIVES AS INHIBITORS OF ERBB2” (EnLiven Therapeutics, Inc., priority 2020, published 2023).
# How the values were obtained:
# [1] = biological target: T1, phosphorylated ERBB2 (pERBB2) (Homo sapiens, UniProt P04626); experiment: Detection of phosphorylated ERBB2 (pERBB2) by ELISA in BT-474 cells; type: cell-based; conditions: four hours incubation with compound, OD 450 nm
# T1 construct: endogenous in cells; host or cells: BT-474
# T1 sequence (P04626 23-1255): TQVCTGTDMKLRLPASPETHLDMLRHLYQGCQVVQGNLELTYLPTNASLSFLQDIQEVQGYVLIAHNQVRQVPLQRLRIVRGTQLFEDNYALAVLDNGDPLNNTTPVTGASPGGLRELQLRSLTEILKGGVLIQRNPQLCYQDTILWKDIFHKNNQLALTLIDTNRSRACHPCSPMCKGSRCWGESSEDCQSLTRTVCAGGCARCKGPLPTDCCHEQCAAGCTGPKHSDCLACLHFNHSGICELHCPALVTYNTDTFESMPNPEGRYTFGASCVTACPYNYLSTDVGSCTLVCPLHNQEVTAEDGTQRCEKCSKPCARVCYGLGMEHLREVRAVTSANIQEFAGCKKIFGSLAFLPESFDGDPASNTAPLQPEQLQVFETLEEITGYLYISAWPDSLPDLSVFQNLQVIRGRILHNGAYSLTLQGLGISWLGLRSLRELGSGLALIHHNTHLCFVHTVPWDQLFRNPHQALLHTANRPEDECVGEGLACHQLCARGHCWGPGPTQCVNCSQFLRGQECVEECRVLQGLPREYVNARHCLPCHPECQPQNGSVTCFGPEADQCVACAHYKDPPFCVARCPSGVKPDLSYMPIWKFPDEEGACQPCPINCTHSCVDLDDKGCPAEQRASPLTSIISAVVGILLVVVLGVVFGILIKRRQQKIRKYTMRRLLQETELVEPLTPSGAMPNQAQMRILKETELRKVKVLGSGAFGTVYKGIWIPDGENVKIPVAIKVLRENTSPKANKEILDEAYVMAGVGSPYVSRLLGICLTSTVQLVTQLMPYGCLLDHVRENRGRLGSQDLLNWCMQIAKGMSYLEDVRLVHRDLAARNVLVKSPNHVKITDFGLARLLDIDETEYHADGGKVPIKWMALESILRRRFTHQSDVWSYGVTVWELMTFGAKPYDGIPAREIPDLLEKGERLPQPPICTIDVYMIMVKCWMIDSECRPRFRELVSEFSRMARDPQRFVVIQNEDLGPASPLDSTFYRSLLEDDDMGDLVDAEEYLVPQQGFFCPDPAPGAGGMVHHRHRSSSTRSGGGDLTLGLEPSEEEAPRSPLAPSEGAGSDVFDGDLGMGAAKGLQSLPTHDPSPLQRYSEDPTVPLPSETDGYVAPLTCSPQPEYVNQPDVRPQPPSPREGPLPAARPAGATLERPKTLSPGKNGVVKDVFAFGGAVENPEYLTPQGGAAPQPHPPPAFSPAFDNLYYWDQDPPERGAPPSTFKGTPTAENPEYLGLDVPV
# Method: BT-474 cells were seeded into a 96-well at 2.0*10^4 cells/100 μl/well.
# Compounds were dissolved and serially diluted in DMSO. The compounds were then were added, mixed, and incubated for four hours at 37° C., 5% CO2. Compounds were added using four-fold dilutions at final concentrations ranging from 10 μM to 0.01 nM.
# Following the four hour incubation with compounds, cell lysates were prepared. Plates were centrifuged for 5 min at 3000 RPM, and supernatant was removed from each well. Cells were washed 3 times by resuspension in 150 μl PBS, followed by centrifugation and removal of the supernatant, as above. […] Cells were incubated with lysis buffer for 1 hour at 4° C., and then stored at −80° C.
# Enzyme-linked immunosorbent assays (ELISA) were performed to measure phosphorylated ERBB2 levels. […] The next day, plates were washed with PBS+0.05% Tween20 (PBST). 150 μl of 5% BSA blocking solution was added for 1 hour at room temperature, with shaking. Plates were washed with PBST. Cell lysates were thawed and 100 μl of lysate was added to the ELISA plate. The plates were incubated for 2 hours at room temperature, with shaking. […] Plates were incubated for 1 hour at room temperature, with shaking. Plates were then washed with PBST, and 100 μl TMB substrate solution (R&D Systems, cat #DY999) was added. Plate were incubated in the dark for 20 minutes at room temperature. 50 μl of Stop solution (R&D Systems, cat #DY994) (50 μl) was added to each well and mixed.
# Optical density at 450 nm was read on an EnSpire plate reader (Perkin Elmer). The remaining kinase activity by calculated using the following formula: % Relative activity=100×(A450sample−A450LC)/(A450HC−A450LC). The low and high control values (“LC” and “HC”) were generated from lysate from wells without cells or with cells treated with 0.1% DMSO, respectively.
# [2] = biological target: T2, phosphorylated EGFR (pEGFR) (Homo sapiens, UniProt P00533); experiment: Detection of phosphorylated EGFR (pEGFR) in EGF-stimulated A431 cells (AlphaLISA); type: cell-based; conditions: A431 cells (10% FBS), 4 hours with compound, then EGF 30 ng/mL for 10 minutes
# T2 construct: endogenous in cells; host or cells: A431
# T2 sequence (P00533 25-1210): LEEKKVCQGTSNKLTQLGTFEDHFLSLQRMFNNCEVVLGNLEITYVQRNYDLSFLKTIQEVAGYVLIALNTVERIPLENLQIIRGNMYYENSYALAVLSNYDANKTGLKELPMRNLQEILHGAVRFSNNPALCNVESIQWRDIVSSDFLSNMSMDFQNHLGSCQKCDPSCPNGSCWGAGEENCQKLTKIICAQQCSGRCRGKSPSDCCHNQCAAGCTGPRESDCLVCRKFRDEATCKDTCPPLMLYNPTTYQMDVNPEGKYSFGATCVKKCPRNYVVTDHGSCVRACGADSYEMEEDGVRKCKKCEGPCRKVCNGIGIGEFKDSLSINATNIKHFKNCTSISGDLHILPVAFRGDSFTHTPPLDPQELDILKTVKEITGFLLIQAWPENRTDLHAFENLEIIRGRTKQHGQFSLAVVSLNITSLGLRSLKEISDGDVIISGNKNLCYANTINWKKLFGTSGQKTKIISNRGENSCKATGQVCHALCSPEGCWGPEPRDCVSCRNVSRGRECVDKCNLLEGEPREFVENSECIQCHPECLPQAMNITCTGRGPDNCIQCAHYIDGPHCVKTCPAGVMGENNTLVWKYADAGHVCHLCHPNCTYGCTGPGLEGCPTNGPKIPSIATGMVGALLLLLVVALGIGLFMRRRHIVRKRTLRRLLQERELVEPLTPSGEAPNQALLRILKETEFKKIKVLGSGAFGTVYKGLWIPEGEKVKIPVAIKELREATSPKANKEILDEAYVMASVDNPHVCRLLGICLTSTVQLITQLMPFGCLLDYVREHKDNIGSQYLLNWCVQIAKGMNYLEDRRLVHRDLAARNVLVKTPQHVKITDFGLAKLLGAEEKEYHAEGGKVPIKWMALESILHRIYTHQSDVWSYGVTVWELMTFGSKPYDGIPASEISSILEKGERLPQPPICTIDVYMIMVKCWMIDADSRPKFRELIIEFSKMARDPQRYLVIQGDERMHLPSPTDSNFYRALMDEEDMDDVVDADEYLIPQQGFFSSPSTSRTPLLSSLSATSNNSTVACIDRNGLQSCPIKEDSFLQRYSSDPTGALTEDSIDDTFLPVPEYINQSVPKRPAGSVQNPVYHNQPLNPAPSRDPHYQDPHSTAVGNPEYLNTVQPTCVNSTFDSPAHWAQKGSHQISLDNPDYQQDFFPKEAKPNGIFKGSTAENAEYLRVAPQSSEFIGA
# Method: Enzyme-linked immunosorbent assays (ELISA) were performed to measure phosphorylated EGFR levels using A431 cells (10% FBS). A431 (1.0*10^4 cells/40 μl/well) cells were seeded in 384 well. Compounds were dissolved in DMSO, serially diluted in DMSO and then were added, mixed, and incubated for 4 hours at 37° C., 5% CO2. Following the 4-hours incubation, cells were stimulated for 10 minutes with EGF (Invitrogen, cat #PHG0311) at a final concentration of 30 ng/mL in the incubator. The media was aspirated and cells were lysed in 10 μL lysis buffer with protease and phosphatase inhibitors (PerkinElmer, cat #ALSU-PEGFR-A50K). The plates were placed on a shaker for 5 minutes and then incubated for 30 min at 4° C. for complete lysis. The lysate was transferred to an Optiplate (Perkin Elmer, cat #6007290).
# Acceptor mix (PerkinElmer, cat #ALSU-PEGFR-A50K) was prepared just before use and 5 μL was dispensed to all the wells, followed by a 1.5-2 h incubation at room temperature in dark. The donor mix (PerkinElmer, cat #ALSU-PEGFR-A50K) was prepared under low light conditions prior to use and […] of donor mix was added to all the wells under subdued lighting or green filters. The plates were placed on a shaker for 5 min, sealed, and incubated overnight at room temperature in dark. Plates were read on the Envision (PerkinElmer) using standard AlphaLISA settings.
# The percentage of inhibition on EGFR phosphorylation was calculated following equation: % Inhibition=100×(LumHC−LumSample)/(LumHC−LumLC). The low and high controls (LC/HC) are generated from lysate from wells with cells treated with DMSO or […] Staurosporine (BioAustralis, cat #BIA-S1086), […]. IC50 values were calculated by fitting the Curve using XLfit (v5.3.1.3), equation 201: Y=Bottom+(Top−Bottom)/(1+10^((LogIC50−X)*HillSlope)).
# [3] = biological target: T3, Ba/F3 ERBB2 A775_G776insYVMA (Homo sapiens, UniProt P04626, DUP772-775, cells depend on it); experiment: Cell viability assay (CellTiter Glo); type: cell-based, mouse; conditions: 72 hours; 300 cells per well, 384-well plates (Table B5); read-out: Cell Line: Ba/F3 ERBB2 A775 G776ins YVMA IC50
# T3 construct: Ba/F3 cell lines were engineered to express human ERBB2 or EGFR kinases, rendering the cells IL-3 independent
# T3 sequence (P04626 with tags, fused parts or gaps DUP772-775): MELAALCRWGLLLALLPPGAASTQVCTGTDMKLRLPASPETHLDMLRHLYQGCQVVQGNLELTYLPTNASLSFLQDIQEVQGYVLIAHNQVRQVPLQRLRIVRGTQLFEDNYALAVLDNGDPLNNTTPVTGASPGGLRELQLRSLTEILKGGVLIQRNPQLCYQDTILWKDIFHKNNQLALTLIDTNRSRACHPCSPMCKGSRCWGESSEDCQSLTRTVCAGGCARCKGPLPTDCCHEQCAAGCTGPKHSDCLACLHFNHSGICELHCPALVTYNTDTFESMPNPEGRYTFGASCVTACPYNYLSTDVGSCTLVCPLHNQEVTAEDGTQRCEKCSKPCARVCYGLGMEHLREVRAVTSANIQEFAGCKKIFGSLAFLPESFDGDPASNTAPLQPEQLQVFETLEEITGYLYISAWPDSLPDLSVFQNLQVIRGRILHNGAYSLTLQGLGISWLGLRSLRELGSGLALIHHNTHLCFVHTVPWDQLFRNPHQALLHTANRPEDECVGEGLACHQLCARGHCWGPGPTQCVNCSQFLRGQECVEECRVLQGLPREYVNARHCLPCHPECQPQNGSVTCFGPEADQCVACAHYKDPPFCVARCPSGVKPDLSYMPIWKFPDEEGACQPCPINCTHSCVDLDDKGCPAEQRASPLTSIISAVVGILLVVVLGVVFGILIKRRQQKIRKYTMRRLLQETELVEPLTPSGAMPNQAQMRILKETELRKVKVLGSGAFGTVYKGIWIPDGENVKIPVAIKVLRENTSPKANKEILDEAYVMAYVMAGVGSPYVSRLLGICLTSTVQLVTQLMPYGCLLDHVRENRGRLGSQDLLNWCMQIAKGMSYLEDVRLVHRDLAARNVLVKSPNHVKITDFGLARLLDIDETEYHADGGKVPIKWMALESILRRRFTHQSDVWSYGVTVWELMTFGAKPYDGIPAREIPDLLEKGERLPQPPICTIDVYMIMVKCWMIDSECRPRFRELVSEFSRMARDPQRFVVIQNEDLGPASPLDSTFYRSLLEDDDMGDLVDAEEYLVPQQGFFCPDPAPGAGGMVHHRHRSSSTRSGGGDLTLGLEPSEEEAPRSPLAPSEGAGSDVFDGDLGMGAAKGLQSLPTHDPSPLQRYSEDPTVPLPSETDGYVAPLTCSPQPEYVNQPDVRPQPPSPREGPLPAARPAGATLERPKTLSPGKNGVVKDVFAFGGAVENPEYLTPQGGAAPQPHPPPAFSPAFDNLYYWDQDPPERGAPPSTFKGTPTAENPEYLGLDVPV
# Method: Cells were treated with compounds, and cell viability was measured as a metric of kinase inhibition.
# The Ba/F3 cell line is IL-3-dependent mouse cell line derived from the C3H mouse strain. Ba/F3 cell lines were engineered to express human ERBB2 or EGFR kinases, rendering the cells IL-3 independent. The lines were generated via retroviral transduction utilizing a Moloney murine leukemia virus (MMLV) promoter, and constructs are stably integrated into the cell genome.
# Similarly, Ba/F3 cell lines engineered to express EGFR, ERBB2, or ERBB2 mutants were grown, harvested, counted and seeded at 3000 cells per well in 96-well plates for the data sets shown in Tables B3-B4, and seeded at 300 cells per well in 384-well plates for the data set shown in Table B5. A subset of wells contained media only (low control, “LC”).
# Table B2 provides the growth media and number of cells seeded per well for the each cell line.
# Compounds were dissolved in DMSO and serially diluted. Serially-diluted compound or a DMSO only control (high control, “HC”) was added to the plated cells in each well. […] The final proportion of DMSO never exceeded 0.1%.
# Plates were placed in a 37° C., 5% CO2 incubator for 72 hours. Plates were then removed from the incubator and equilibrated for 15 minutes at room temperature. 40 IA of CellTiter Glo reagent (Promega) was added to measure the relative level of metabolically active cells by quantifying intracellular ATP concentrations. Plates were incubated for 30 minutes at room temperature, and luminescence was measured. Percent viability was normalized to a vehicle control only using the following formula: % viability=100×(LumSample−LumLC) (LumHC−LumLC). Graphical curves were fitted using a nonlinear regression model with a sigmoidal dose response.
IC50 [1] [nM],IC50 [2] [nM],SMILES,GI50 [3] [nM]
3.7,69.6,"CC#CC(=O)Nc1cc2c(Nc3ccc(Oc4ccn5ncnc5c4)c(Cl)c3)ncnc2cc1OCCN(C)C [Compound 200, N-(4-((4-([1,2,4]triazolo[1,5-a]pyridin-7-yloxy)-3-chlorophenyl)amino)-7-(2-(dimethylamino)ethoxy)quinazolin-6-yl)but-2-ynamide]",2.63
6.05,45.5,"CC#CC(=O)Nc1cc2c(Nc3ccc(Oc4ccn5ncnc5c4)c(C)c3)ncnc2cc1OCCN1CCN(C)CC1 [Compound 203, N-{4-[(3-methyl-4-{[1,2,4]triazolo[1,5-a]pyridin-7-yloxy}phenyl)amino]-7-[2-(4-methylpiperazin-1-yl)ethoxy]quinazolin-6-yl}but-2-ynamide]",5.11
32.4,579,"CC#CC(=O)Nc1ccc2ncnc(Nc3ccc(Oc4ccc5c(c4)ncn5C)c(C)c3)c2c1F [Compound 213, N-[5-fluoro-4-({3-methyl-4-[(1-methyl-1,3-benzodiazol-5-yl)oxy]phenyl}amino)quinazolin-6-yl]but-2-ynamide]",9.65
12.1,1850,"CC#CC(=O)Nc1ccc2ncnc(Nc3cc(C)c(Oc4ccn5ncnc5c4)cc3F)c2c1F [Compound 210, N-{5-fluoro-4-[(2-fluoro-5-methyl-4-{[1,2,4]triazolo[1,5-a]pyridin-7-yloxy}phenyl)amino]quinazolin-6-yl}but-2-ynamide]",10.8
6.23,508,"CC#CC(=O)Nc1cc2c(Nc3ccc(Oc4ccn5ncnc5c4)c(F)c3)ncnc2cc1OCCN(C)C [Compound 198, N-(4-((4-([1,2,4]triazolo[1,5-a]pyridin-7-yloxy)-3-fluorophenyl)amino)-7-(2-(dimethylamino)ethoxy)quinazolin-6-yl)but-2-ynamide]",11.5
1180,2260,"CCOc1cc2ncnc(Nc3ccc(Oc4ccn5ncnc5c4)c(C)c3)c2cc1NC(=O)C#CCN1CCN(C)CC1 [Compound 208, N-{7-ethoxy-4-[(3-methyl-4-{[1,2,4]triazolo[1,5-a]pyridin-7-yloxy}phenyl)amino]quinazolin-6-yl}-4-(4-methylpiperazin-1-yl)but-2-ynamide triformate]",> 500
21.8,543,"CC#CC(=O)Nc1cc2c(Nc3ccc(Cc4ccn5ncnc5c4)c(F)c3)ncnc2cc1OCCN(C)C [Compound 202, N-{7-[2-(dimethylamino)ethoxy]-4-[(3-fluoro-4-{[1,2,4]triazolo[1,5-a]pyridin-7-ylmethyl}phenyl)amino]quinazolin-6-yl}but-2-ynamide]",49.4
153,1970,"CC#CC(=O)Nc1cc2c(Nc3ccc(Oc4cnn(C)c(=O)c4)c(C)c3)ncnc2cc1OCCN(C)C [Compound 201, N-{7-[2-(dimethylamino)ethoxy]-4-({3-methyl-4-[(1-methyl-6-oxopyridazin-4-yl)oxy]phenyl}amino)quinazolin-6-yl}but-2-ynamide]",346
52.3,377,"CC#CC(=O)Nc1ccc2ncnc(Nc3ccc(Oc4ccc5c(c4)ncn5C)c(C)c3)c2c1 [Compound 212, N-[4-({3-methyl-4-[(1-methyl-1,3-benzodiazol-5-yl)oxy]phenyl}amino)quinazolin-6-yl]but-2-ynamide]",9.41

# Second part, the molecule before the results:
SMILES,IC50 [1] [nM],IC50 [2] [nM],GI50 [3] [nM]
"CC#CC(=O)Nc1cc2c(Nc3ccc(Oc4ccn5ncnc5c4)c(Cl)c3F)ncnc2cc1OCCN(C)C [Compound 193, N-(4-((4-([1,2,4]triazolo[1,5-a]pyridin-7-yloxy)-3-chloro-2-fluorophenyl)amino)-7-(2-(dimethylamino)ethoxy)quinazolin-6-yl)but-2-ynamide]",13.8,658,9.32
"CC#CC(=O)Nc1cc2c(Nc3ccc(Oc4ccn5ncnc5c4)c(C)c3)ncnc2cc1OCCN1CCCC1 [Compound 192, N-{4-[(3-methyl-4-{[1,2,4]triazolo[1,5-a]pyridin-7-yloxy}phenyl)amino]-7-[2-(pyrrolidin-1-yl)ethoxy]quinazolin-6-yl}but-2-ynamide]",9.51,1350,11
"CC#CC(=O)Nc1cc2c(Nc3ccc(Cc4ccn5ncnc5c4)c(C)c3)ncnc2cc1OCCN(C)C [Compound 196, N-(4-((4-([1,2,4]triazolo[1,5-a]pyridin-7-ylmethyl)-3-methylphenyl)amino)-7-(2-(dimethylamino)ethoxy)quinazolin-6-yl)but-2-ynamide]",8.36,943,9.96
"CC#CC(=O)Nc1cc2c(Nc3ccc(Cc4ccn5ncnc5c4)c(C)c3)ncnc2cc1OCCCN(C)C [Compound 189, N-{7-[3-(dimethylamino)propoxy]-4-[(3-methyl-4-{[1,2,4]triazolo[1,5-a]pyridin-7-ylmethyl}phenyl)amino]quinazolin-6-yl}but-2-ynamide]",1.87,106,2.47
"Cc1cc(Nc2ncnc3cc(OCCN(C)C)c(NC(=O)C#CC4(C)CC4)cc23)ccc1Oc1ccn2ncnc2c1 [Compound 190, N-{7-[2-(dimethylamino)ethoxy]-4-[(3-methyl-4-{[1,2,4]triazolo[1,5-a]pyridin-7-yloxy}phenyl)amino]quinazolin-6-yl}-3-(1-methylcyclopropyl)prop-2-ynamide]",24.9,1220,34.5
"CC#CC(=O)Nc1cc2c(Nc3ccc(Oc4ccn5ncnc5c4)c(C4CC4)c3)ncnc2cc1OCCN(C)C [Compound 195, N-{4-[(3-cyclopropyl-4-{[1,2,4]triazolo[1,5-a]pyridin-7-yloxy}phenyl)amino]-7-[2-(dimethylamino)ethoxy]quinazolin-6-yl}but-2-ynamide]",104,7070,86.8
